Reference: patent US5840711A, “Compositions containing lithium inorganic salts and anti-viral drugs and method of treating viral infections such as acquired immunodeficiency syndrome” (priority 1997, dated 1998)

Key:
[1] = test system: CFU-GM of Normal Bone Marrow
Description: (§1) The laboratory studies were performed in vitro to evaluate whether either drugs, i.e., with or without their lithium formulation when combined with either normal bone marrow cells or bone marrow cells taken from MAIDS animals would express: 1) differences in their toxicity profile when measured in culture and 2) differences comparing the responses using normal bone marrow cells versus bone marrow cells from MAIDS animals, in other words, comparing viral-infected cells with non-viral infected cells.
(§2) This table is interpreted as follows.

[2] = test system: BFU-E of Normal Bone Marrow
Description: as §1, §2

Row | Substance | CC50 [1] [µM] | CC50 [2] [µM]
1 | 2,3'-Dideoxycytosine [ddC] | 10 | 0.6
2 | 2',2'-Dideoxyinosine [ddI] | 100 | 1
